From patent US5919940A, “Metalloproteinase inhibitors” (British Biotech Pharmaceuticals Limited, priority 1998, dated 1999)
Like-named read-outs stand apart in the source and are kept apart here.

Legend:
stromelysin [1] = molecular target: T1, stromelysin (Homo sapiens, UniProt P08254); assay: biochemical
Source text: (§1) The casein was acetylated ^14 C casein prepared by the method of Cawston et al (ibid).

72 kDa Gelatinase = molecular target: T2, 72 kDa Gelatinase (Homo sapiens, UniProt P08253); assay: Inhibition of 72 kDa gelatinase (14C-radiolabelled gelatin; Sellers et al); assay type: biochemical
T2 construct: endogenous in cells; host or cells: RPMI-7951 cells
T2 sequence (P08253 110-660): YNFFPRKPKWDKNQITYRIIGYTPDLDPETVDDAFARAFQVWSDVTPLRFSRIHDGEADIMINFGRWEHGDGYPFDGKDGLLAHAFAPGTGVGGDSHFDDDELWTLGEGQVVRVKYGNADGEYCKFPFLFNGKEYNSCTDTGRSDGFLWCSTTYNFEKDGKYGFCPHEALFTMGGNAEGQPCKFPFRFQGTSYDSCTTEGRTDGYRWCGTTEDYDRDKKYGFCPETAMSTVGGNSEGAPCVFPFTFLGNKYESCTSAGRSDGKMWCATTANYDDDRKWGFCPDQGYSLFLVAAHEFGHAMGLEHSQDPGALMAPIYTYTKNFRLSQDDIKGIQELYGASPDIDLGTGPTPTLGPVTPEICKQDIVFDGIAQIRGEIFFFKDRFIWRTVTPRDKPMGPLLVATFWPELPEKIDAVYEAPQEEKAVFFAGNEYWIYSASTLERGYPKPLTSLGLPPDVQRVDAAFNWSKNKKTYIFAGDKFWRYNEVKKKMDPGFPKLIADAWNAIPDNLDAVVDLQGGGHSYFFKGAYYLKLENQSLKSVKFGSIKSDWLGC

Collagenase = assay: Inhibition of collagenase (acetylated 14C collagen hydrolysis; Cawston and Barrett); assay type: biochemical; conditions: 37°, 16 hours, pH 7.5, read-out: In vitro inhibitory activity IC50, Collagenase
Source text: The samples were centrifuged to sediment undigested collagen, and an aliquot of the radioactive supernatant removed for assay on a scintillation counter as a measure of hydrolysis.

stromelysin [2] = molecular target: T1, stromelysin; conditions: read-out: In vitro inhibitory activity IC50, Stromelsin; 14C acetylated casein, 37°, 16 hours, pH 7.5
Source text: as §1

[3] = enzyme from RPMI-7951 cells, 14C gelatin, 37° C., 16 hours, read-out: In vitro inhibitory activity IC50, 72 kDa Gelatinase

T1 sequence (P08254 100-477): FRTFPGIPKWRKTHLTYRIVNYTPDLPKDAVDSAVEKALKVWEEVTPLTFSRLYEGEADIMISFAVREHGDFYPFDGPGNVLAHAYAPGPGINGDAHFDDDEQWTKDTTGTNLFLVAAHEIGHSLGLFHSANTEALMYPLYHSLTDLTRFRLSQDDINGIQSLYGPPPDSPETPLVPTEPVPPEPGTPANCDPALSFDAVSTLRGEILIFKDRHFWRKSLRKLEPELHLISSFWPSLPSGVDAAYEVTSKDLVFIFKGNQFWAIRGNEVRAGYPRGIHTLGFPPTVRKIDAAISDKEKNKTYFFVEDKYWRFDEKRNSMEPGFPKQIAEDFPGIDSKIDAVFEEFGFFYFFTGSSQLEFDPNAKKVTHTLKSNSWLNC

| SMILES | IC50 (stromelysin [1]) | IC50 (72 kDa Gelatinase; [3]) | IC50 (Collagenase) | IC50 (72 kDa Gelatinase) | IC50 (stromelysin [2]) |
| --- | --- | --- | --- | --- | --- |
| CC(C)C[C@H](CC(=O)NO)C(=O)N[C@H](C(=O)Nc1ccccn1)C(C)(C)C [Example 3, 3R-(2,2-Dimethyl-1S-pyridin-2-ylcarbamoyl-propylcarbamoyl)-5-methyl-hexanohydroxamic acid] | 150 nM | 30 nM | 40 nM |  |  |
| CC(C)C[C@@H](C(=O)N[C@H](C(=O)Nc1ccccc1)C(C)(C)C)[C@H](O)C(=O)NO [Example 4, 3R-(2,2-Dimethyl-1S-phenylcarbamoyl-propylcarbamoyl)-2S-hydroxy-5-methylhexanohydroxamic acid] | 9 nM | 5 nM | 2 nM |  |  |
| COc1ccc(NC(=O)[C@H](Cc2ccccc2)NC(=O)[C@H](CC(C)C)[C@H](O)C(=O)NO)cc1 [Example 6] | 3 nM | 8 nM | 30 nM |  |  |
| CC(C)C[C@H](CC(=O)NO)C(=O)N[C@H](C(=O)Nc1ccccc1)C(C)(C)C [Example 2, 3R-(2,2-Dimethyl-1S-phenylcarbamoyl-propylcarbamoyl)-5-methyl-hexanohydroxamic acid] | 15 nM | 30 nM | 30 nM |  |  |
| CNC(=O)[C@@H](NC(=O)[C@@H](CC(=O)NO)CC(C)C)C(C)(C)C [Comparator 3, 3R-(2,2-Dimethyl-1S-methylcarbamoyl-propylcarbamoyl)-5-methylhexanohydroxamic acid, reference compound] | 700 nM |  | 10 nM | 8 nM |  |
| CC(C)C[C@H](NC(=O)[C@H](CC(C)C)[C@H](O)C(=O)NO)C(=O)Nc1ccc2ccccc2c1 [Example 5, 2S-Hydroxy-3R-(3-methyl-1S-napth-2-ylcarbamoyl-butylcarbamoyl)-5-methylhexanohydroxamic acid] | 5 nM | 6 nM | 30 nM |  |  |
| CNC(=O)[C@H](CC(C)C)NC(=O)[C@H](CC(C)C)[C@H](O)C(=O)NO [Comparator 5, 2S-Hydroxy-3R-(1S-methylcarbamoyl-3-methyl-butylcarbamoyl)-5methylhexanohydroxamic acid, reference compound] | 90 nM |  | 8 nM |  |  |
| CNC(=O)[C@H](Cc1ccccc1)NC(=O)[C@@H](CC(=O)NO)CC(C)C [Comparator 1, 5-Methyl-3R-(1S-methylcarbamoyl-2-phenylethylcarbamoyl)hexanohydroxamic acid, reference compound] |  |  | 15 nM |  |  |
| CC(C)C[C@@H](C(=O)N[C@H](C(=O)Nc1ccccn1)C(C)(C)C)[C@H](O)C(=O)NO [Example 8, 3R-(2,2-Dimethyl-1S-pyridin-2-ylcarbamoyl-propylcarbamoyl)-2S-hydroxy-5-methylhexanohydroxamic acid] | 30 nM | 15 nM | 6 nM |  |  |
| CC(C)C[C@H](CC(=O)NO)C(=O)N[C@@H](Cc1ccccc1)C(=O)Nc1ccccc1 [Example 1, 5-Methyl-3R-(2-phenyl-1S-phenylcarbamoylethylcarbamoyl)-hexanohydroxamic acid] |  | 60 nM | 20 nM |  | 10 nM |
| CNC(=O)[C@H](Cc1ccccc1)NC(=O)[C@H](CC(C)C)[C@H](O)C(=O)NO [Comparator 4, 2S-Hydroxy-3R-(1S-methylcarbamoyl-2-phenylethylcarbamoyl)-5-methylhexanohydroxamic acid, reference compound] | 200 nM | 3 nM | 15 nM |  |  |
| Cc1nc(NC(=O)[C@@H](NC(=O)[C@H](CC(C)C)[C@H](O)C(=O)NO)C(C)(C)C)sc1C [Example 17, 3R-(2,2-Dimethyl-1S-(4,5-dimethylthiazol-2-ylcarbamoyl)-propylcarbamoyl)-2S-hydroxy-5-methylhexanohydroxamic acid] | 20 nM | 30 nM | 2 nM |  |  |
